Source: patent US6426329B1, “Immunosuppressant activity of insulin-like growth factor I (IGF-I)” (Fujisawa Pharmaceutical Co., Ltd., priority 1997, dated 2002)

Columns and labels:
IGF-I = IGF-I producing action of FK506 (liver and blood IGF-I by rat IGF-I RIA kit after 7 days oral dosing); type: in vivo; conditions: male SD rats; for increase of blood concentration of IGF-I / increase of concentration of IGF-I in the liver: 0.5 hour after final dose
Method: Male SD rats aged 6 weeks were orally dosed with FK506 once daily for 7 consecutive days, and at 0.5 hour following the final dose, the liver and blood were isolated. The blood IGF-I concentration was measured by acid-ethanol extraction and subsequent assay with a rat IGF-I RIA kit (DSL). The hepatic IGF-I level was measured by acetic acid extraction and subsequent assay with the rat IGF-I RIA kit. Five rats per group were used.

Bile secretions [1] = assay: Choleretic action of FK506 and synergistic action of IGF-I (bile secretion in bile duct-cannulated anesthetized rats); type: in vivo, rat; conditions: for effect on choleresis (in words): summary of Table 2 data, IGF-I in combination with FK506
Method: Using male SD rats (6 weeks old) under urethane anesthesia (1.2 g/5 ml/kg), a midline incision was made in the abdominal region. Ligation was performed at the lower part of the common bile duct and a polyethylene tube (PE10, Intramedics) was inserted from above and ligated in position. The bile was thus withdrawn extracorporeally and pooled. The rat was kept warm on a hot plate at 37° C. and the volume of the bile withdrawn-was measured at 30-min intervals. […] As to FK506, FK506 Inj. (1P mg/1 ml vial) was used. Rats in the control group received saline both intravenously and subcutaneously. The bile was collected up to 180min after medication. As the baseline secretions, the average of the values at 2 points of time immediately preceding drug administration was used.

Bile secretions [2] = assay: Anticholeretic action of CsA and antagonizing action of IGF-I (bile secretion in bile duct-cannulated anesthetized rats); type: in vivo, rat
Method: Using male SD rats (7 weeks old) under urethane anesthesia (1.2 g/5 ml/kg), a midline incision was made in the abdominal region. Ligation was performed at the lower part of the common bile duct and a polyethylene tube (PE10, Intramedics) was inserted from above and ligated in position. The bile was thus withdrawn extracorporeally and pooled. The rat was kept warm on a hot plate at 37° C. and the volume of the bile withdrawn was measured at 30-min intervals. […] (250 mg/5 ml vial) was diluted with saline. Rats in the control group received saline both intravenously and subcutaneously. The bile was collected up to 180 min after drug administration. As the baseline secretions, the average of the values at 2 points of time immediately preceding drug administration was used.

[3] = FK506 1 mg/kg orally once daily for 7 days
[4] = FK506 10 mg/kg orally once daily for 7 days
[5] = Before administration (baseline)
[6] = Before administration (baseline), Mean ± S.E.

`C=CC[C@@H]1/C=C(\C)C[C@H](C)C[C@H](OC)[C@H]2O[C@@](O)(C(=O)C(=O)N3CCCC[C@H]3C(=O)O[C@H](/C(C)=C/[C@@H]3CC[C@@H](O)[C@H](OC)C3)[C@H](C)[C@@H](O)CC1=O)[C@H](C)C[C@@H]2OC` [FK506, 17-allyl-1,14-dihydroxy-12-[2-(4-hydroxy-3-methoxycyclohexyl)-1-methylvinyl]-23,25-dimethoxy-13,19,21,27-tetramethyl-11,28-dioxa-4-azatricyclo[22.3.1.0^4,9] octacos-18-ene-2,3,10,16-tetraone] was tested, and the “increase of blood concentration of IGF-I” value (IGF-I; [3]) was 14%, the “increase of concentration of IGF-I in the liver” value (IGF-I; [3]) was 28% and the “increase of blood concentration of IGF-I” value (IGF-I; [4]) was 11%. The “increase of concentration of IGF-I in the liver” value (IGF-I; [4]) was 26%, the “IGF-I producing activity (in words)” value (IGF-I; liver) was “express IGF-I producing activity in the liver” and the “effect on choleresis (in words)” value (Bile secretions [1]) was “has a choleretic action”.
“IGF-I: insulin-like growth factor I (IGF-I), dissolved in saline, given subcutaneously” was tested, and the “Bile secretions, % of preadministration baseline” value (“Bile secretions, %” below) (Bile secretions [2]; 0˜30 min after administration, CsA 10 mg/kg i.v., IGF-I 10 mg/kg s.c.) was “(109) %”, the “Bile secretions, %” value (Bile secretions [2]; 30˜60 min after administration, CsA 10 mg/kg i.v., IGF-I 10 mg/kg s.c.) was “(121) %” and the “Bile secretions, %” value (Bile secretions [2]; 60˜90 min after administration, CsA 10 mg/kg i.v., IGF-I 10 mg/kg s.c.) was “(124) %”. For the same compound, the “Bile secretions, %” value (Bile secretions [2]; 90˜120 min after administration, CsA 10 mg/kg i.v., IGF-I 10 mg/kg s.c.) was “(118) %”, the “Bile secretions, %” value (Bile secretions [2]; 120˜150 min after administration, CsA 10 mg/kg i.v., IGF-I 10 mg/kg s.c.) was “(121) %” and the “Bile secretions, %” value (Bile secretions [2]; 150˜180 min after administration, CsA 10 mg/kg i.v., IGF-I 10 mg/kg s.c.) was “(118) %”. For the same compound, the “Bile secretions, %” value (Bile secretions [2]; [5]) was “(100) %”, the Bile secretions (Bile secretions [2]; [6]) was 0.33 ± 0.03 ml/30 min and the “effect on choleresis (in words)” value (Bile secretions [2]; summary of Table 1 data, IGF-I in combination with CsA) was “enhances choleresis”. The “Bile secretions, %” value (Bile secretions [1]; 0˜30 min after administration, 10 mg/kg i.v. immunosuppressant, IGF-I 10 mg/kg s.c.) was “(109) %”, the “Bile secretions, %” value (Bile secretions [1]; 30˜60 min after administration, 10 mg/kg i.v. immunosuppressant, IGF-I 10 mg/kg s.c.) was “(117) %” and the “Bile secretions, %” value (Bile secretions [1]; 60˜90 min after administration, 10 mg/kg i.v. immunosuppressant, IGF-I 10 mg/kg s.c.) was “(120) %”. For the same compound, the “Bile secretions, %” value (Bile secretions [1]; 90˜120 min after administration, 10 mg/kg i.v. immunosuppressant, IGF-I 10 mg/kg s.c.) was “(120) %”, the “Bile secretions, %” value (Bile secretions [1]; 120˜150 min after administration, 10 mg/kg i.v. immunosuppressant, IGF-I 10 mg/kg s.c.) was “(123) %” and the “Bile secretions, %” value (Bile secretions [1]; 150˜180 min after administration, 10 mg/kg i.v. immunosuppressant, IGF-I 10 mg/kg s.c.) was “(114) %”. The “Bile secretions, %” value (Bile secretions [1]; [5]) was “(100) %”, the Bile secretions (Bile secretions [1]; [6]) was 0.35 ± 0.01 ml/30 min and the “effect on choleresis (in words)” value (Bile secretions [1]) was “enhances choleresis”.
